# In patent publication US11873298B2, “Compounds and uses thereof” (JANSSEN PHARMACEUTICA NV, priority 2017, dated 2024):
# pIC50: −log10 of the molar value. Values joined by “and” are separate entries in the source; they are usually repeats but may differ in a detail not shown here. Equal entries are not always repeated.
# Legend:
# Assay type in all cases: cell-based
# SCD1 = molecular target: T1, SCD1 (Homo sapiens, UniProt O00767); test: Growth inhibition of humanized yeast strain expressing SCD1 as sole desaturase; details: humanized yeast strain expressing SCD1
# T1 construct: host or cells: S. cerevisiae ole1Δ strain (W303 pdr1Δ pdr3Δ background), plasmid pRS316 with TDH3 promoter and CYC1 terminator
# T1 sequence (O00767 1-359): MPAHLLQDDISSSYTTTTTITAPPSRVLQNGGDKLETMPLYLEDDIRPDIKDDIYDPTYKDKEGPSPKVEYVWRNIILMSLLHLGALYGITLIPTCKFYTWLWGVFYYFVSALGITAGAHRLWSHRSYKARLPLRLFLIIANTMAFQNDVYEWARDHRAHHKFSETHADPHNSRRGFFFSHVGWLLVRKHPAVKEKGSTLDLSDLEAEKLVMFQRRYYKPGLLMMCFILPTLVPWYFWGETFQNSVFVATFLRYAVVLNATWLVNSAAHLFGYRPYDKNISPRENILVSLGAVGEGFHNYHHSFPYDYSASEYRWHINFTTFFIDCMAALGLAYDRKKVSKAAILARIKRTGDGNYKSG
# Procedure, shortened: (§1)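 Plasmid-complemented ole1Δ yeast, drug-pump deleted (pdr1Δ pdr3Δ), depend solely on the introduced Ole1, SCD1 or SCD5 desaturase. Compounds are added from DMSO to cells in uracil-free galactose medium, 2× density 0.02, and OD600 is read after 24 h or 40 h respectively.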
# Ole1 = molecular target: T2, Ole1 (Saccharomyces cerevisiae, UniProt P21147); test: Growth inhibition of yeast strain expressing Ole1 as sole desaturase; details: yeast strain expressing Ole1 as sole desaturase
# T2 construct: expressed in transfected cells; host or cells: S. cerevisiae ole1Δ strain (W303 pdr1Δ pdr3Δ background), plasmid pRS316 with TDH3 promoter and CYC1 terminator
# T2 sequence (P21147 1-510): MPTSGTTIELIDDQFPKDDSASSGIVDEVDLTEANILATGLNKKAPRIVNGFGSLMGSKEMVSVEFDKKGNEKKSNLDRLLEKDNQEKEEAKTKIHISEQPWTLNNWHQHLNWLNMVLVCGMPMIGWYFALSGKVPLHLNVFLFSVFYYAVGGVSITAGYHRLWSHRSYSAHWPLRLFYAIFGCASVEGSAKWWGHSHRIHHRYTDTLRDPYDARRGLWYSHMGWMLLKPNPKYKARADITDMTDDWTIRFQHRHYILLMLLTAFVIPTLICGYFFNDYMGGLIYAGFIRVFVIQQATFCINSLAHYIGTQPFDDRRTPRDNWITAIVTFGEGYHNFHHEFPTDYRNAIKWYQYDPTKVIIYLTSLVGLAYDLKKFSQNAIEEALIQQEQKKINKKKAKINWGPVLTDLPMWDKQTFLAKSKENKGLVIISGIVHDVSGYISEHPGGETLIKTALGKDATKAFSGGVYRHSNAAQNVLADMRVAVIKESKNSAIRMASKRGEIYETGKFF
# Description: Strain oleΔ (yeast ole1 deletion mutant) was constructed by deleting OLE1 with NAT-MX6 in BY4741, amplifying the deletion cassette from the genomic DNA of the resulting strain with primers flanking the ORF by 1000 bp upstream and downstream, transforming the resulting deletion cassette into W303 pdr1Δ pdr3Δ, and plating transformants on YPD media containing G418 (200 μg/mL) and nourseothricin ([…]) with 0.01% TWEEN®-20 and 0.5 mM oleic and palmitoleic acids.
# The coding sequence of yeast OLE1 was also cloned into this plasmid). These clones were then transformed into the ole1Δ strain and plated on CSM-Ura media (CSM lacking uracil) with 2% glucose (w/v) and independent colonies were isolated and amplified.
# All compound profiling experiments were performed using the same basic protocol. Different genetic backgrounds (e.g., gene deletions) or conditions (e.g., addition of oleic and palmitoleic acid) were replaced as indicated below.
# Yeast were cultured using standard techniques in complete synthetic media (CSM) and yeast nitrogen base supplemented with 2% (w/v) carbon source (glucose, raffinose, or galactose) to regulate the expression of the toxic disease protein. An initial starter culture was inoculated in 3 mL CSM-Glucose media and incubated overnight in a 30° C. shaker incubator (225 rpm). Saturated morning cultures were then diluted 1:20 in fresh CSM-Raffinose media and grown for 6 h to an OD600 (optical density) of ˜0.4-0.8 at 30° C. with shaking.
# Compound administration was performed in two separate steps. First, 15 μL of CSM-Galactose (induces expression of toxic protein) was dispensed into clear 384 well assay plates using a MULTIDROP™ Combi reagent dispenser. […] The cultures described above were then diluted to a 2× concentration (0.03 and 0.08 for alpha-synuclein and ApoE, final ODsoo of 0.015 and 0.04) in CSM-Galactose. For wild-type and Ole1/SCD1/SCD5 plasmid-containing strains, the 2× cell density was 0.02. […] For 96-well assays (FIGS. 1A and 1B), compound dilutions in DMSO were generated in 96 well plates and 1 μL was manually pipetted into 96 well clear bottom assay plates.
# For experiments using a plasmid-borne copy of Ole1, SCD1, or SCD5 (FIGS. 3B, 6, and 7), media lacking uracil (SX-Ura, where X is glucose, raffinose, or galactose), was used for all steps of the compound profiling protocol to ensure its maintenance throughout the assay.
# After yeast delivery, assay plates were incubated under humidified conditions at 30° C. for 24 to 40 h. ApoE4 rescue experiments were stopped at 24 h, aSyn experiments at 40 h, Ole1 at 24 h, and SCD1/SCD5 at 40 h. The growth of yeast was monitored by reading the ODsoo of each well using a microplate reader (Perkin Elmer EnVision™).
# SCD5 = molecular target: T3, SCD5 (Homo sapiens, UniProt Q86SK9); test: Growth inhibition of humanized yeast strain expressing SCD5 as sole desaturase; details: humanized yeast strain expressing SCD5
# T3 construct: host or cells: S. cerevisiae ole1Δ strain (W303 pdr1Δ pdr3Δ background), plasmid pRS316 with TDH3 promoter and CYC1 terminator
# T3 sequence (Q86SK9 1-330): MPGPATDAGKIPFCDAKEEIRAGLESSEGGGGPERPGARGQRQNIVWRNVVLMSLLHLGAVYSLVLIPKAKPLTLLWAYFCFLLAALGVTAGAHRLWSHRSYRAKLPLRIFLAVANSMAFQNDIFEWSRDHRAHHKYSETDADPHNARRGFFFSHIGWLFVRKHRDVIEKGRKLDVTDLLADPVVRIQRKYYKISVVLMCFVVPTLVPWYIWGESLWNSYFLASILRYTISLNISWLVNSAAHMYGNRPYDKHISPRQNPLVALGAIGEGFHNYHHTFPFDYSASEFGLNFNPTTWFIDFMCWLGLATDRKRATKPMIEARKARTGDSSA
# Procedure, shortened: as §1
SMILES,pIC50 (SCD1),SCD1 % Max Inhibition (SCD1),pIC50 (Ole1),OLE1 % Max Inhibition (Ole1),pIC50 (SCD5),SCD5 % Max Inhibition (SCD5) [%]
Cn1c(=O)[nH]c2ccc(-c3noc(C4CCN(C(=O)CNC(=O)c5ccccc5)CC4)n3)cc21 [Compound 162],< 4.35,84.54%,< 4.35,100.35%,< 4.35,76.89
O=C(NCC(=O)N1CCC(c2nc(-c3ccc4nonc4c3)no2)CC1)c1ccccc1 [Compound 163],4.44,55.99%,< 4.35,71.84%,< 4.35,24.77
O=C(C1CC(=O)N(c2ccccc2)C1)N1CCC(c2nc(-c3ccc4nonc4c3)no2)CC1 (centres unmarked) [Compound 164],< 4.35,102.20%,< 4.35,96.96%,< 4.35,73.90
Cc1nn(C)c2cc(-c3noc(C4CCN(C(=O)CN5Cc6ccccc6C5=O)CC4)n3)ccc12 [Compound 165],< 4.35,94.44%,< 4.35,2.01%,< 4.35,80.23
CCOc1cnc(-c2noc(C3CCN(C(=O)CNC(=O)c4ccccc4)CC3)n2)nc1OC [Compound 166],< 4.35,90.07%,< 4.35,105.73%,< 4.35,68.87
COc1ccc(-c2noc(C3CCN(C(=O)c4cccc(C(C)C)c4)CC3)n2)cc1OC [Compound 167],< 4.35,6.11%,4.42,57.28%,< 4.35,2.38
Cc1nn(C)c2cc(-c3noc(C4CCN(C(=O)C5CC(=O)N(c6cccc(C#N)c6)C5)CC4)n3)ccc12 (centres unmarked) [Compound 168],< 4.35,114.58% and 74.07%,< 4.35,4.90% and 8.34%,< 4.35,
Cc1nn(C)c2cc(-c3noc(C4CCN(C(=O)C5CC(=O)N(c6ccccc6C#N)C5)CC4)n3)ccc12 (centres unmarked) [Compound 170],< 4.35,103.19%,4.39,67.97%,< 4.35,85.13
CC(C)n1ncc2ccc(-c3noc(C4CCN(C(=O)CNC(=O)c5ccccc5)CC4)n3)cc21 [Compound 171],4.39,74.21%,< 4.35,6.77%,< 4.35,−0.14
CCOc1ccc(-c2noc(C3CCN(C(=O)[C@@H]4CN(c5ccccc5)C(=O)O4)CC3)n2)cc1OC [Compound 172],< 4.35,89.39%,< 4.35,3.99%,4.39,68.80
Cc1nn(C)c2cc(-c3noc(C4CCN(C(=O)[C@H]5CN(c6ccccc6)C(=O)O5)CC4)n3)ccc12 [Compound 173],< 4.35,78.07%,< 4.35,99.75%,4.53,42.09
CC(C)n1ncc2ccc(-c3noc(C4CCN(C(=O)C5CC(=O)N(c6ccccc6)C5)CC4)n3)cc21 (centres unmarked) [Compound 174],< 4.35,79.07%,< 4.35,89.17%,< 4.35,10.95
CCOc1ccc(-c2noc(C3CCN(C(=O)CN4Cc5c(F)cccc5C4=O)CC3)n2)cc1OC [Compound 175],< 4.35,77.47%,< 4.35,3.00%,< 4.35,77.96
